# Test results from paper PMC11494501, “AlphaFold Ensemble Competition Screens Enable Peptide Binder Design with Single-Residue Sensitivity” (ACS Chemical Biology, 2024).
# Residues, ends and D or L forms follow the SMILES beside them. *: point of attachment. FITC = O=C1OC2(c3ccc(O)cc3Oc3cc(O)ccc32)c2ccc(NC(=S)*)cc21; βAla = NCCC(=O)O
# Target: T1, Ub (Homo sapiens, UniProt P0CG48)
# Assay: Fluorescence polarization (FP) titration of labelled peptide against Ub
# Settings: 1c (C-terminal Lys side-chain label) relative to 1a (N-terminal label), from FP Kd
row,reduction in binding energy [kJ mol^–1],Compound
1,6.5,CC[C@H](C)[C@H](NC(=O)[C@H](C)NC(=O)[C@H](CCCCN)NC(=O)[C@H](CCCNC(=N)N)NC(=O)[C@@H](NC(=O)[C@H](CC(C)C)NC(=O)[C@H](CCC(=O)O)NC(=O)[C@H](CCC(=O)O)NC(=O)[C@H](CCC(=O)O)NC(=O)[C@H](CC(=O)O)NC(=O)[C@H](CCC(=O)O)NC(=O)CNC(C)=O)[C@@H](C)CC)C(=O)N[C@@H](CCC(=O)O)C(=O)N[C@@H](CC(C)C)C(=O)N[C@@H](CO)C(=O)N[C@@H](CC(C)C)C(=O)N[C@@H](CCCCN)C(=O)N[C@@H](CCC(=O)O)C(=O)N[C@@H](CO)C(=O)NCC(=O)N[C@@H](CCCCNC(=S)Nc1ccc2c(c1)C(=O)OC21c2ccc(O)cc2Oc2cc(O)ccc21)C(N)=O [1c] (Ac-GEDEEELIRKAIELSLKESGK(FITC)-NH2)

# Same assay, conditions: relative to 1a (UIM-1), from FP Kd; positive = weaker binding
row,ΔΔG for binding Ub [kJ/mol],Compound
1,7.9,CC[C@H](C)[C@H](NC(=O)[C@H](C)NC(=O)[C@H](CCCCN)NC(=O)[C@H](CCCNC(=N)N)NC(=O)[C@H](C)NC(=O)[C@H](CC(C)C)NC(=O)[C@H](CCC(=O)O)NC(=O)[C@H](CCC(=O)O)NC(=O)[C@H](CCC(=O)O)NC(=O)[C@H](CC(=O)O)NC(=O)[C@H](CCC(=O)O)NC(=O)CNC(=O)CCNC(=S)Nc1ccc2c(c1)C(=O)OC21c2ccc(O)cc2Oc2cc(O)ccc21)C(=O)N[C@@H](CCC(=O)O)C(=O)N[C@@H](CC(C)C)C(=O)N[C@@H](CO)C(=O)N[C@@H](CC(C)C)C(=O)N[C@@H](CCCCN)C(=O)N[C@@H](CCC(=O)O)C(=O)N[C@@H](CO)C(=O)NCC(N)=O [3a] ({FITC-βAla}-GEDEEELARKAIELSLKESG-NH2)
2,7.0,CC[C@H](C)[C@H](NC(=O)[C@H](CC(C)C)NC(=O)[C@H](CCC(=O)O)NC(=O)[C@H](CCC(=O)O)NC(=O)[C@H](CCC(=O)O)NC(=O)[C@H](CC(=O)O)NC(=O)[C@H](CCC(=O)O)NC(=O)CNC(=O)CCNC(=S)Nc1ccc2c(c1)C(=O)OC21c2ccc(O)cc2Oc2cc(O)ccc21)C(=O)N[C@@H](CCCNC(=N)N)C(=O)N[C@@H](CCCCN)C(=O)N[C@@H](C)C(=O)N[C@@H](C)C(=O)N[C@@H](CCC(=O)O)C(=O)N[C@@H](CC(C)C)C(=O)N[C@@H](CO)C(=O)N[C@@H](CC(C)C)C(=O)N[C@@H](CCCCN)C(=O)N[C@@H](CCC(=O)O)C(=O)N[C@@H](CO)C(=O)NCC(N)=O [4a] ({FITC-βAla}-GEDEEELIRKAAELSLKESG-NH2)
3,1.0,CC[C@H](C)[C@H](NC(=O)[C@H](C)NC(=O)[C@H](CCCCN)NC(=O)[C@H](CCCNC(=N)N)NC(=O)[C@@H](NC(=O)[C@H](CC(C)C)NC(=O)[C@H](CCC(=O)O)NC(=O)[C@H](CCC(=O)O)NC(=O)[C@H](CCC(=O)O)NC(=O)[C@H](CC(=O)O)NC(=O)[C@H](CCC(=O)O)NC(=O)CNC(=O)CCNC(=S)Nc1ccc2c(c1)C(=O)OC21c2ccc(O)cc2Oc2cc(O)ccc21)[C@@H](C)CC)C(=O)N[C@@H](CCC(=O)O)C(=O)N[C@@H](C)C(=O)N[C@@H](CO)C(=O)N[C@@H](CC(C)C)C(=O)N[C@@H](CCCCN)C(=O)N[C@@H](CCC(=O)O)C(=O)N[C@@H](CO)C(=O)NCC(N)=O [5a] ({FITC-βAla}-GEDEEELIRKAIEASLKESG-NH2)
4,4.7,CC[C@H](C)[C@H](NC(=O)[C@H](C)NC(=O)[C@H](CCCCN)NC(=O)[C@H](CCCNC(=N)N)NC(=O)[C@@H](NC(=O)[C@H](CC(C)C)NC(=O)[C@H](CCC(=O)O)NC(=O)[C@H](CCC(=O)O)NC(=O)[C@H](CCC(=O)O)NC(=O)[C@H](CC(=O)O)NC(=O)[C@H](CCC(=O)O)NC(=O)CNC(=O)CCNC(=S)Nc1ccc2c(c1)C(=O)OC21c2ccc(O)cc2Oc2cc(O)ccc21)[C@@H](C)CC)C(=O)N[C@@H](CCC(=O)O)C(=O)N[C@@H](CC(C)C)C(=O)N[C@@H](CO)C(=O)N[C@@H](C)C(=O)N[C@@H](CCCCN)C(=O)N[C@@H](CCC(=O)O)C(=O)N[C@@H](CO)C(=O)NCC(N)=O [6a] ({FITC-βAla}-GEDEEELIRKAIELSAKESG-NH2)
5,2.1,CC[C@H](C)[C@H](NC(=O)[C@H](C)NC(=O)[C@H](CCCCN)NC(=O)[C@H](CCCNC(=N)N)NC(=O)[C@H](Cc1ccccc1)NC(=O)[C@H](CC(C)C)NC(=O)[C@H](CCC(=O)O)NC(=O)[C@H](CCC(=O)O)NC(=O)[C@H](CCC(=O)O)NC(=O)[C@H](CC(=O)O)NC(=O)[C@H](CCC(=O)O)NC(=O)CNC(=O)CCNC(=S)Nc1ccc2c(c1)C(=O)OC21c2ccc(O)cc2Oc2cc(O)ccc21)C(=O)N[C@@H](CCC(=O)O)C(=O)N[C@@H](CC(C)C)C(=O)N[C@@H](CO)C(=O)N[C@@H](CC(C)C)C(=O)N[C@@H](CCCCN)C(=O)N[C@@H](CCC(=O)O)C(=O)N[C@@H](CO)C(=O)NCC(N)=O [8a] ({FITC-βAla}-GEDEEELFRKAIELSLKESG-NH2)
6,2.9,CC[C@H](C)[C@H](NC(=O)[C@H](CC(C)C)NC(=O)[C@H](CCC(=O)O)NC(=O)[C@H](CCC(=O)O)NC(=O)[C@H](CCC(=O)O)NC(=O)[C@H](CC(=O)O)NC(=O)[C@H](CCC(=O)O)NC(=O)CNC(=O)CCNC(=S)Nc1ccc2c(c1)C(=O)OC21c2ccc(O)cc2Oc2cc(O)ccc21)C(=O)N[C@@H](CCCNC(=N)N)C(=O)N[C@@H](CCCCN)C(=O)N[C@@H](C)C(=O)N[C@@H](CC(C)C)C(=O)N[C@@H](CCC(=O)O)C(=O)N[C@@H](CC(C)C)C(=O)N[C@@H](CO)C(=O)N[C@@H](CC(C)C)C(=O)N[C@@H](CCCCN)C(=O)N[C@@H](CCC(=O)O)C(=O)N[C@@H](CO)C(=O)NCC(N)=O [9a] ({FITC-βAla}-GEDEEELIRKALELSLKESG-NH2)

# Second part, the compound before the results:
row,Compound,ΔΔG for binding Ub [kJ/mol]
1,CC[C@H](C)[C@H](NC(=O)[C@H](C)NC(=O)[C@H](CCCCN)NC(=O)[C@H](CCCNC(=N)N)NC(=O)[C@@H](NC(=O)[C@H](CCC(=O)O)NC(=O)[C@H](CCC(=O)O)NC(=O)[C@H](CCC(=O)O)NC(=O)[C@H](CCC(=O)O)NC(=O)[C@H](CC(=O)O)NC(=O)[C@H](CCC(=O)O)NC(=O)CNC(=O)CCNC(=S)Nc1ccc2c(c1)C(=O)OC21c2ccc(O)cc2Oc2cc(O)ccc21)[C@@H](C)CC)C(=O)N[C@@H](CCC(=O)O)C(=O)N[C@@H](CC(C)C)C(=O)N[C@@H](CO)C(=O)N[C@@H](CC(C)C)C(=O)N[C@@H](CCCCN)C(=O)N[C@@H](CCC(=O)O)C(=O)N[C@@H](CO)C(=O)NCC(N)=O [7a] ({FITC-βAla}-GEDEEEEIRKAIELSLKESG-NH2),2.8
2,CC[C@H](C)[C@H](NC(=O)[C@H](C)NC(=O)[C@H](CCCCN)NC(=O)[C@H](CCCNC(=N)N)NC(=O)[C@@H](NC(=O)[C@H](CC(C)C)NC(=O)[C@H](CCC(=O)O)NC(=O)[C@H](CCC(=O)O)NC(=O)[C@H](CCC(=O)O)NC(=O)[C@H](CC(=O)O)NC(=O)[C@H](CCC(=O)O)NC(=O)CNC(=O)CCNC(=S)Nc1ccc2c(c1)C(=O)OC21c2ccc(O)cc2Oc2cc(O)ccc21)[C@@H](C)CC)C(=O)N[C@@H](CCC(=O)O)C(=O)N[C@@H](CCC(=O)O)C(=O)N[C@@H](CO)C(=O)N[C@@H](CC(C)C)C(=O)N[C@@H](CCCCN)C(=O)N[C@@H](CCC(=O)O)C(=O)N[C@@H](CO)C(=O)NCC(N)=O [10a] ({FITC-βAla}-GEDEEELIRKAIEESLKESG-NH2),-0.3
3,CC[C@H](C)[C@H](NC(=O)[C@H](C)NC(=O)[C@H](CCCCN)NC(=O)[C@H](CCCNC(=N)N)NC(=O)[C@@H](NC(=O)[C@H](CC(C)C)NC(=O)[C@H](CCC(=O)O)NC(=O)[C@H](CCC(=O)O)NC(=O)[C@H](CCC(=O)O)NC(=O)[C@H](CC(=O)O)NC(=O)[C@H](CCC(=O)O)NC(=O)CNC(=O)CCNC(=S)Nc1ccc2c(c1)C(=O)OC21c2ccc(O)cc2Oc2cc(O)ccc21)[C@@H](C)CC)C(=O)N[C@@H](CCC(=O)O)C(=O)N[C@@H](CC(C)C)C(=O)N[C@@H](CO)C(=O)N[C@@H](CCC(=O)O)C(=O)N[C@@H](CCCCN)C(=O)N[C@@H](CCC(=O)O)C(=O)N[C@@H](CO)C(=O)NCC(N)=O [11a] ({FITC-βAla}-GEDEEELIRKAIELSEKESG-NH2),4.5

# Same assay, conditions: relative to 1a, from FP Kd
row,Compound,additional binding energy [kJ mol^–1]
1,CC[C@H](C)[C@H](NC(=O)[C@H](C)NC(=O)[C@H](CCCCN)NC(=O)[C@H](CCCNC(=N)N)NC(=O)[C@@H](NC(=O)[C@H](CC(C)C)NC(=O)[C@H](CCC(=O)O)NC(=O)[C@H](CCC(=O)O)NC(=O)[C@H](CCC(=O)O)NC(=O)[C@H](CC(=O)O)NC(=O)[C@H](CCC(=O)O)NC(=O)CNC(=O)CCNC(=S)Nc1ccc2c(c1)C(=O)OC21c2ccc(O)cc2Oc2cc(O)ccc21)[C@@H](C)CC)C(=O)N[C@@H](CCC(=O)O)C(=O)N[C@@H](CCC(=O)O)C(=O)N[C@@H](CO)C(=O)N[C@@H](CC(C)C)C(=O)N[C@@H](CCCCN)C(=O)N[C@@H](CCC(=O)O)C(=O)N[C@@H](CO)C(=O)NCC(N)=O [10a] ({FITC-βAla}-GEDEEELIRKAIEESLKESG-NH2),0.3

# Target: T1, Ub
# Assay: not given
# Settings: read-out: dissociation constant of Ub:UIM-1 complex; cited from earlier work
# Description: We selected the UIM-1 sequence as an experimental model system because it is well characterized, having both the reported dissociation constant and NMR structure (pdb: 1q0w, Figure 1a,c). […] The UIM-1 sequence binds to Ub primarily through a series of hydrophobic contacts around the characteristic “AxxxS” UIM pattern of alanine and serine residues spaced four positions apart. Further, polar and salt bridge contacts may also stabilize the complex. […] The peptide concentration was mainta ...
row,Compound,Kd [µM]
1,UIM-1: first UIM of the Vps27 protein; literature Kd from a slightly longer variant of the peptide,277
